Measured values taken from patent US12022844B2, “Nutritional composition, food/drink composition using nutritional composition, and modified milk powder using nutritional composition” (priority 2018, dated 2024).

Experiments:
[1] = test system: Lactobacillus gasseri ATCC33323; assay: Single bacterial culturing with HMO as sugar source, OD650; format: cell-based; settings: ATCC 33323^T, sugar source 2%, 8 h, Table 6
Description: (§1) A10% solution of glucose (manufactured by Nakarai Tesque Inc.), and 2′-FL ((≥95%) Funakoshi, available from sigma), and LNnT (manufactured by ELICITYL) as examples of HMOs was prepared with ion exchanged water, and was subjected to sterile filtration using Millex-GV (SLGV033RS).
(§2) Lactobacilli MRS Broth (BD) (0.05% L-Cysteine Hydrochloride for Bacteria of the genus Bifidobacterium) was added to strains of Table 1 below (bacteria belonging to Bifidobacterium bifidum) and Table 2 below. After a sterilization treatment, 3% of the bacterial solution was inoculated, and anaerobically cultured (pre-pre cultured) at 37° C. for 16 h.
(§3) The following day, 1% glucose was added to a modified BL agar medium (“Studies on Bifidobacteria” by Tomotari Mitsuoka, p. 306, Japan Bifidus Foundation, issued in 1994) noted in Table 3, for preparation. After a sterilization treatment, 3% of the pre-pre cultured bacterial solution was inoculated, and anaerobically pre-cultured (pre-cultured) at 37° C. for 12 h.
(§4) The pre-cultured bacterial solution was collected and washed once with a sterile physiological saline solution. Then, mass-up was performed to an equal volume with the modified BL agar medium (“Studies on Bifidobacteria” by Tomotari Mitsuoka, p. 306, Japan Bifidus Foundation, issued in 1994) noted in Table 3 to prepare a suspended bacterial solution.
(§5) The modified BL agar medium (“Studies on Bifidobacteria” by Tomotari Mitsuoka, p. 306, Japan Bifidus Foundation, issued in 1994) noted in Table 3 was prepared at a capacity of 60%, and was subjected to an autoclave sterilization treatment. Then, 40% of each sugar solution prepared in (1) was aseptically added so as to prepare a medium with a sugar concentration of 4%.
(§6) The medium prepared in the above (3) was dispensed at a capacity that is half the capacity for culturing in a 96-well plate, and the bacterial solution prepared in the above (2) was dispensed at a remaining half capacity such that the bacterial solution had 6%. Then, a final sugar concentration was set to 2%. The plate into which the bacterial solution was dispensed was anaerobically cultured at 37° C. for 8 h.
(§7) OD650 was measured from each well in the plates in the above (4) and the above (5) before (0 h) culturing and after (8 h) culturing, by MICROPLATE READER SH-9000 (manufactured by CORONA ELECTRIC). After turbidity measurement, microbial cells were collected, and DNA extraction was performed. After the DNA extraction, the number of proliferating bacteria of Bifidobacteria/lactobacilli was analyzed by using the bacterial species-specific primer noted in Table 4, by a quantitative PCR method (see “Structural analysis of intestinal flora”—analysis of bacterial flora in human feces using quantitative PCR—by Kouichi Watanabe, Enterobacteriological journal, 20:35-42, 2006).
(§8) Regarding strains in Table 2, each strain was cultured as a single bacterium by 2′-FL or LNnT (HMOs) as a sugar source, and OD650 was measured. The results for 2′-FL are noted in Table 6 below, and the results for LNnT are noted in Table 7 below.

[2] = test system: Lactobacillus plantarum ATCC14917; assay: as above; format: cell-based; settings: ATCC 14917^T, sugar source 2%, 8 h, Table 6
Description: as §1, §2, §3, §4, §5, §6, §7, §8

[3] = test system: Bifidobacterium breve ATCC15700; assay: as above; format: cell-based; settings: sugar source 2%, 8 h, Table 6
Description: as §1, §2, §3, §4, §5, §6, §7, §8

[4] = test system: Bifidobacterium longum subsp longum ATCC15707; assay: as above; format: cell-based; settings: ATCC 15707^T, sugar source 2%, 8 h, Table 6
Description: as §1, §2, §3, §4, §5, §6, §7, §8

[5] = test system: Bifidobacterium animalis subsp lactis DSM10140; assay: as above; format: cell-based; settings: DSM 101407, sugar source 2%, 8 h, Table 6
Description: as §1, §2, §3, §4, §5, §6, §7, §8

[6] = test system: Lactobacillus rhamnosus ATCC7469; assay: as above; format: cell-based; settings: ATCC 7469^T, sugar source 2%, 8 h, Table 6
Description: as §1, §2, §3, §4, §5, §6, §7, §8

[7] = test system: Bifidobacterium adolescentis ATCC15703; assay: as above; format: cell-based; settings: ATCC 15703^T, sugar source 2%, 8 h, Table 6
Description: as §1, §2, §3, §4, §5, §6, §7, §8

[8] = test system: Bifidobacterium longum subsp infantis ATCC15697; assay: as above; format: cell-based; settings: ATCC 156971, sugar source 2%, 8 h, Table 6
Description: as §1, §2, §3, §4, §5, §6, §7, §8

[9] = test system: Bifidobacterium pseudolongum ATCC25526; assay: as above; format: cell-based; settings: ATCC 25526^T, sugar source 2%, 8 h, Table 6
Description: as §1, §2, §3, §4, §5, §6, §7, §8

[10] = test system: Lactobacillus acidophhilus ATCC4356; assay: as above; format: cell-based, Lactobacillus acidophilus; settings: ATCC 4356^T, sugar source 2%, 8 h, Table 6
Description: as §1
as §2, with “h. […]” for “h.”
OD650 was measured from each well in the plates in the above (4) and the above (5) before (0 h) culturing and after (8 h) culturing, by MICROPLATE READER SH-9000 (manufactured by CORONA ELECTRIC). […] After the DNA extraction, the number of proliferating bacteria of Bifidobacteria/lactobacilli was analyzed by using the bacterial species-specific primer noted in Table 4, by a quantitative PCR method (see “Structural analysis of intestinal flora”—analysis of bacterial flora in human feces using quantitative PCR—by Kouichi Watanabe, Enterobacteriological journal, 20:35-42, 2006).
Regarding strains in Table 2, each strain was cultured as a single bacterium by 2′-FL or LNnT (HMOs) as a sugar source, and OD650 was measured. […]

[11] = test system: Lactobacillus paracasei ATCC 25302; assay: Mix-culturing with Bifidobacterium bifidum by HMO as sugar source, quantitative PCR; format: cell-based; settings: for Proliferation rate (number of bacteria after mix-culturing for 8 h/number of bacteria after single bacterial culturing): ATCC 25302^7 mix-cultured with Bifidobacterium bifidum (NITE BP-02429), sugar source 2%, Table 8; for Proliferation ratio of Lactobacillus paracasei ATCC 25302^T (mix-cultured bacteria after 8 h/single bacterial culturing 8 h): Table 12; for number of proliferating bacteria of Lactobacillus paracasei ATCC 25302^T in combination with seven strains of Bifidobacterium bifidum compared to single bacterium culture: summary of Table 12
Description: as §1, §2, §3, §4, §5
The medium prepared in the above (3) was dispensed at a capacity that is half the capacity for aseptic culturing in a 96-well plate, and each of the bacterial solutions of strains of bacteria belonging to Bifidobacterium bifidum in Table 1 and probiotics having a low ability to assimilate human milk oligosaccharides in Table 2, which was prepared in the above (2), was dispensed at a remaining […] capacity into the medium prepared in the above (3) such that the bacterial solution had 12%. Then, a final sugar concentration was set to 2%. The plate into which the bacterial solution was dispensed was anaerobically cultured at 37° C. for 8 h.
as §7
It was decided to culture Bifidobacterium bifidum (NITE BP-02429) in which availability of 2′-FL or LNnT was found as described above, in combination with strains in Table 2, which cannot use 2′-FL or LNnT. Bifidobacterium bifidum (NITE BP-02429) and the strains in Table 2, which cannot use 2′-FL or LNnT, were mix-cultured by 2′-FL or LNnT as a sugar source, and after culturing for 8 h, the proliferation rate of the number of bacteria of each strain (proliferation rate=the number of bacteria after mix-culturing for 8 h/the number of bacteria after single bacterial culturing) was measured by a quantitative PCR method using each strain-specific oligonucleotide primer noted in Table 4, for the strain in Table 2.
Seven strains of Bifidobacterium bifidum in Table 1 and Lactobacillus paracasei ATCC 25302^T which cannot use 2′-FL or LNnT were mix-cultured by 2′-FL or LNnT as a sugar source. […]

[12] = test system: Bifidobacterium longum subsp longum BB536; assay: Single bacterial culturing with HMO as sugar source, OD650; format: cell-based; settings: sugar source 2%, 8 h, Table 7
Description: as §1, §2, §3, §4, §5, §6, §7, §8

[13] = test system: Bifidobacterium animalis subsp lactis MCC-525; assay: as above; format: cell-based; settings: sugar source 2%, 8 h, Table 7
Description: as §1, §2, §3, §4, §5, §6, §7, §8

[14] = mix-cultured with Bifidobacterium bifidum ATCC 29521^T
[15] = mix-cultured with Bifidobacterium bifidum NITE BP-1252
[16] = mix-cultured with Bifidobacterium bifidum NITE BP-02429
[17] = mix-cultured with Bifidobacterium bifidum NITE BP-02431
[18] = mix-cultured with Bifidobacterium bifidum NITE BP-02432
[19] = mix-cultured with Bifidobacterium bifidum NITE BP-02433
[20] = mix-cultured with Bifidobacterium bifidum NITE P-02648

Row | Compound | Proliferation rate (number of bacteria after mix-culturing for 8 h/number of bacteria after single bacterial culturing) [11] | Proliferation ratio of Lactobacillus paracasei ATCC 25302^T (mix-cultured bacteria after 8 h/single bacterial culturing 8 h) [11, 14] | Proliferation ratio of Lactobacillus paracasei ATCC 25302^T (mix-cultured bacteria after 8 h/single bacterial culturing 8 h) [11, 15] | Proliferation ratio of Lactobacillus paracasei ATCC 25302^T (mix-cultured bacteria after 8 h/single bacterial culturing 8 h) [11, 16] | Proliferation ratio of Lactobacillus paracasei ATCC 25302^T (mix-cultured bacteria after 8 h/single bacterial culturing 8 h) [11, 17] | Proliferation ratio of Lactobacillus paracasei ATCC 25302^T (mix-cultured bacteria after 8 h/single bacterial culturing 8 h) [11, 18] | Proliferation ratio of Lactobacillus paracasei ATCC 25302^T (mix-cultured bacteria after 8 h/single bacterial culturing 8 h) [11, 19] | Proliferation ratio of Lactobacillus paracasei ATCC 25302^T (mix-cultured bacteria after 8 h/single bacterial culturing 8 h) [11, 20] | number of proliferating bacteria of Lactobacillus paracasei ATCC 25302^T in combination with seven strains of Bifidobacterium bifidum compared to single bacterium culture [11] | also measured
1 | 2′-fucosyllactose [2′-FL] | 6.92 | 2.28 | 1.98 | 4.21 | 3.25 | 2.01 | 3.23 | 4.23 | promoted | OD650 increase value [1]: −0.017; OD650 increase value [2]: 0.013; OD650 increase value [3]: 0.041; OD650 increase value [4]: 0.029; OD650 increase value [5]: 0.027; OD650 increase value [6]: 0.058; OD650 increase value [7]: −0.01; OD650 increase value [8]: 0.344; OD650 increase value [9]: 0.022; OD650 increase value [10]: 0.01
2 | CC(=O)N[C@H]1[C@H](O[C@H]2[C@@H](O)[C@@H](CO)O[C@@H](O[C@H]3[C@H](O)[C@@H](O)C(O)O[C@@H]3CO)[C@@H]2O)O[C@H](CO)[C@@H](O[C@@H]2O[C@H](CO)[C@H](O)[C@H](O)[C@H]2O)[C@@H]1O (mixture of isomers) [LNnT, lacto-N-neotetraose] | 4.23 | 4.26 | 9.18 | 8.04 | 10.10 | 8.76 | 8.85 | 14.78 | promoted | OD650 increase value [12]: 0.053; OD650 increase value [13]: 0.096
